Measurements: PubChem BioAssay (NCI)
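Results reflect a 48-hour exposure of cells in 96-well plates to compound at five concentrations. Here, GI50 denotes the concentration required for 50% inhibition of growth. TGI: total growth inhibition.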

Experiments:
Assay in all cases: NCI-60 cell line screen, 48 h
EKVX NSCLC = system: EKVX NSCLC
SK-OV-3 ovarian = system: SK-OV-3 ovarian
PC-3 prostate = system: PC-3 prostate
MDA-MB-435 = system: MDA-MB-435
MCF7 breast = system: MCF7 breast
SF-268 CNS = system: SF-268 CNS
HS 578T breast = system: HS 578T breast
KM12 colon = system: KM12 colon
SN12C renal = system: SN12C renal
CCRF-CEM leukemia = system: CCRF-CEM leukemia
M14 melanoma = system: M14 melanoma
UACC-257 melanoma = system: UACC-257 melanoma
TK-10 renal = system: TK-10 renal
BT-549 breast = system: BT-549 breast
OVCAR-4 ovarian = system: OVCAR-4 ovarian
HL-60(TB) leukemia = system: HL-60(TB) leukemia
SK-MEL-5 melanoma = system: SK-MEL-5 melanoma
SF-539 CNS = system: SF-539 CNS
HOP-62 NSCLC = system: HOP-62 NSCLC
RXF 393 renal = system: RXF 393 renal
MALME-3M melanoma = system: MALME-3M melanoma
DU-145 prostate = system: DU-145 prostate
MOLT-4 leukemia = system: MOLT-4 leukemia
SNB-19 CNS = system: SNB-19 CNS
COLO 205 colon = system: COLO 205 colon
A498 renal = system: A498 renal

`N/C(=N\c1nc2ccccc2s1)NC(=NC1CCCCC1)NC1CCCCC1` was tested, and the GI50 (EKVX NSCLC) was 1510 nM, the TGI (EKVX NSCLC) was 2930 nM and the GI50 (SK-OV-3 ovarian) was 1840 nM. For the same compound, the TGI (SK-OV-3 ovarian) was 3530 nM, the GI50 (PC-3 prostate) was 1520 nM and the TGI (PC-3 prostate) was 3330 nM. The GI50 (MDA-MB-435) was 1440 nM, the TGI (MDA-MB-435) was 2800 nM and the GI50 (MCF7 breast) was 1460 nM. It also gave a TGI (MCF7 breast) of 2830 nM, a GI50 (SF-268 CNS) of 1810 nM and a TGI (SF-268 CNS) of 3650 nM. For the same compound, the GI50 (HS 578T breast) was 1770 nM, the TGI (HS 578T breast) was 3890 nM and the GI50 (KM12 colon) was 1940 nM. The TGI (KM12 colon) was 3780 nM, the GI50 (SN12C renal) was 1610 nM and the TGI (SN12C renal) was 3110 nM. It also gave a GI50 (CCRF-CEM leukemia) of 2460 nM, a TGI (CCRF-CEM leukemia) of 9280 nM and a GI50 (M14 melanoma) of 1630 nM. It also gave a TGI (M14 melanoma) of 3310 nM, a GI50 (UACC-257 melanoma) of 1760 nM and a TGI (UACC-257 melanoma) of 3650 nM. For the same compound, the GI50 (TK-10 renal) was 1640 nM, the TGI (TK-10 renal) was 3280 nM and the GI50 (BT-549 breast) was 1650 nM. The TGI (BT-549 breast) was 3220 nM, the GI50 (OVCAR-4 ovarian) was 1630 nM and the TGI (OVCAR-4 ovarian) was 3290 nM. The GI50 (HL-60(TB) leukemia) was 1830 nM, the TGI (HL-60(TB) leukemia) was 4350 nM and the GI50 (SK-MEL-5 melanoma) was 1800 nM. For the same compound, the TGI (SK-MEL-5 melanoma) was 3210 nM, the GI50 (SF-539 CNS) was 1660 nM and the TGI (SF-539 CNS) was 3120 nM. The GI50 (HOP-62 NSCLC) was 1780 nM, the TGI (HOP-62 NSCLC) was 3990 nM and the GI50 (RXF 393 renal) was 1460 nM. For the same compound, the TGI (RXF 393 renal) was 2860 nM, the GI50 (MALME-3M melanoma) was 1520 nM and the TGI (MALME-3M melanoma) was 3130 nM. It also gave a GI50 (DU-145 prostate) of 1780 nM, a TGI (DU-145 prostate) of 3340 nM and a GI50 (MOLT-4 leukemia) of 1980 nM. It also gave a TGI (MOLT-4 leukemia) of 5450 nM, a GI50 (SNB-19 CNS) of 1590 nM and a TGI (SNB-19 CNS) of 3020 nM. The GI50 (COLO 205 colon) was 1700 nM, the TGI (COLO 205 colon) was 3600 nM and the GI50 (A498 renal) was 1710 nM. For the same compound, the TGI (A498 renal) was 3110 nM.
